Like-named read-outs stand apart in the source and are kept apart here.
Columns and labels:
Assay in all cases: Glasshouse assay for herbicidal activity (pre- and post-emergence), percentage phytotoxicity
Type in all cases: in vivo
[1] = system: Alopecurus myosuroides (ALOMY); settings: Alopecurus myosuroides, 250 g/ha, visual assessment (100%=total damage, 0%=no damage)
Outline: (§1)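 Pot-grown, standard soil. PRE: spray 1 d post-sowing; POST: ~12 d. Glasshouse 24/18 °C (warm spp.) / 20/16 °C (cool spp.), 16 h light, 65% RH, watered 2×/day. Visual % damage, 20 DAA PRE, 15 DAA POST.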

Avena fatua (AVEFA) = settings: Avena fatua, 250 g/ha, visual assessment (100%=total damage, 0%=no damage)
Outline: as §1

[2] = system: Echinochloa crus-galli (ECHCG); settings: Echinochloa crus-galli, 250 g/ha, visual assessment (100%=total damage, 0%=no damage)
Outline: as §1

Lolium perenne (LOLPE) = settings: Lolium perenne, 250 g/ha, visual assessment (100%=total damage, 0%=no damage)
Outline: as §1

[3] = post-emergence, 360 h, post-emergence, 15 DAA, read-out: Post-emergence herbicidal activity (percentage phytotoxicity) ALOMY POST
[4] = pre-emergence, 480 h, pre-emergence, 20 DAA, read-out: Pre-emergence herbicidal activity (percentage phytotoxicity) ALOMY PRE
[5] = post-emergence, 360 h, post-emergence, 15 DAA, read-out: Post-emergence herbicidal activity (percentage phytotoxicity) AVEFA POST
[6] = pre-emergence, 480 h, pre-emergence, 20 DAA, read-out: Pre-emergence herbicidal activity (percentage phytotoxicity) AVEFA PRE
[7] = post-emergence, 360 h, post-emergence, 15 DAA, read-out: Post-emergence herbicidal activity (percentage phytotoxicity) ECHCG POST
[8] = pre-emergence, 480 h, pre-emergence, 20 DAA, read-out: Pre-emergence herbicidal activity (percentage phytotoxicity) ECHCG PRE
[9] = post-emergence, 360 h, post-emergence, 15 DAA, read-out: Post-emergence herbicidal activity (percentage phytotoxicity) LOLPE POST
[10] = pre-emergence, 480 h, pre-emergence, 20 DAA, read-out: Pre-emergence herbicidal activity (percentage phytotoxicity) LOLPE PRE

Structure (SMILES)	pest or weed control at 250 g/ha [1, 3]	pest or weed control at 250 g/ha [1, 4]	pest or weed control at 250 g/ha (Avena fatua (AVEFA); [5])	pest or weed control at 250 g/ha (Avena fatua (AVEFA); [6])	pest or weed control at 250 g/ha [2, 7]	pest or weed control at 250 g/ha [2, 8]	pest or weed control at 250 g/ha (Lolium perenne (LOLPE); [9])	pest or weed control at 250 g/ha (Lolium perenne (LOLPE); [10])
C=C(F)CNC(=O)CC1CC(=O)C(c2c(C)cc(C)cc2C)C1=O (stereo not drawn) [Compound B92]	90%	90%	80%	30%	80%	90%	90%	100%
Cc1cc(-c2ncc(Cl)cc2F)cc(C)c1C1C(=O)CC(CC(=O)N2CCOCC2)C1=O (stereo not drawn) [Compound B93]	100%	80%	100%	70%	100%	100%	100%	90%
C=C(C)CNC(=O)CC1CC(=O)C(c2c(C)cc(-c3ncc(Cl)cc3F)cc2C)C1=O (stereo not drawn) [Compound B94]	100%	100%	100%	90%	100%	100%	100%	100%
Cc1cc(-c2ncc(Cl)cc2F)cc(C)c1C1C(=O)CC(CC(=O)NCCF)C1=O (stereo not drawn) [Compound B95]	100%	100%	100%	100%	100%	100%	100%	100%
CONC(=O)CC1CC(=O)C(c2c(C)cc(C)cc2C)C1=O (stereo not drawn) [Compound B96]	20%	0%	60%	0%	90%	30%	80%	80%
Cc1cc(C)c(C2C(=O)CC(CC(=O)NC3CC3C(F)(F)F)C2=O)c(C)c1 (stereo not drawn) [Compound B97]	70%	80%	50%	0%	80%	90%	70%	80%
Cc1cc(C)c(C2C(=O)CC(CC(=O)NC3CC3(F)F)C2=O)c(C)c1 (stereo not drawn) [Compound B98]	60%	60%	20%	0%	60%	80%	80%	90%
Cc1cc(-c2cc(C#N)c(F)cn2)cc(C)c1C1C(=O)CC(CC(=O)NC(C)(C)C)C1=O (stereo not drawn) [Compound B99]	70%	70%	20%	30%	80%	70%	80%	80%
Cc1cc(-c2ncc(F)cc2F)cc(C)c1C1C(=O)CC(CC(=O)NCc2ccc(Br)cc2)C1=O (stereo not drawn) [Compound B100]	100%	80%	100%	60%	100%	100%	100%	90%
